Reference: patent US20170334899A1, “AMINO-SUBSTITUTED ISOTHIAZOLES” (Bayer Pharma Aktiengesellschaft, priority 2014, published 2017)
“And” between values parts separate entries of the source, which are not always exact repeats. Equal entries are not always repeated.

target: T1, human kinase Mps-1 (Homo sapiens, UniProt P33981); test: Mps-1 kinase assay (TR-FRET); assay type: biochemical; details: Mps-1 TR-FRET kinase assay; avg; read-out: Mps1 avg (IC50 [mol/l])
T1 construct: N-terminally GST-tagged human full length recombinant Mps-1 kinase; GST (N); purchased Invitrogen, Karslruhe, Germany PV4071
T1 sequence (P33981 1-857): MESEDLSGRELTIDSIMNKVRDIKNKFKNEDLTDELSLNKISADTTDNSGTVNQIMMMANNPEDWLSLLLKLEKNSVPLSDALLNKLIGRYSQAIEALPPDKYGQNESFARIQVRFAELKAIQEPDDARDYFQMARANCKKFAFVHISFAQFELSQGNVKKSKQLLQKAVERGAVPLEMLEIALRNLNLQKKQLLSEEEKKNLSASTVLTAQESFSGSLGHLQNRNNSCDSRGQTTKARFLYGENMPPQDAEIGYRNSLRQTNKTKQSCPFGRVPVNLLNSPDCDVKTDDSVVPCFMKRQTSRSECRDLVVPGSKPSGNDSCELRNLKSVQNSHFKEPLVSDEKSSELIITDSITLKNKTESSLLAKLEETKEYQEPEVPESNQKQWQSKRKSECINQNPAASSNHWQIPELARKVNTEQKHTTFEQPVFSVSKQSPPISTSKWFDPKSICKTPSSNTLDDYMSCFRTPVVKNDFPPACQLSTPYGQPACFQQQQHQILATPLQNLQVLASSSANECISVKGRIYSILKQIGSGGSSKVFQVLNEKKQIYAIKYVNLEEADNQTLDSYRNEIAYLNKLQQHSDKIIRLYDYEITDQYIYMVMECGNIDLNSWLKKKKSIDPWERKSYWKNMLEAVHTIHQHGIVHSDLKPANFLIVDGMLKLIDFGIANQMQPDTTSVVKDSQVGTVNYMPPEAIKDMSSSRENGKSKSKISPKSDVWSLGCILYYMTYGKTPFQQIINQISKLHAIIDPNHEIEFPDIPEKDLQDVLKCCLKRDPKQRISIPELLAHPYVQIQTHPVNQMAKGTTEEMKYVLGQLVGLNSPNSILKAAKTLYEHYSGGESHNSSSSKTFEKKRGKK
Summary of the method: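 GST-tagged full-length recombinant human Mps-1 (~0.5 nM) pre-incubated 15 min with compound, then reacted 60 min at 22 °C with 10 μM ATP and 1 μM biotinylated peptide in Hepes pH 7.7 buffer. EDTA-stopped; TR-FRET (Eu anti-phospho-Ser/Thr to SA-XLent) 665/620 nm ratio normalised to no-inhibitor and no-enzyme controls.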

| SMILES | IC50 |
| --- | --- |
| Cc1nsc(Nc2cncc(C(F)(F)F)n2)c1C(=O)Nc1ccc(F)c(OC2CCN(CCF)CC2)c1 [Example 269, N-(4-fluoro-3-{[1-(2-fluoroethyl)piperidin-4-yl]oxy}phenyl)-3-methyl-5-{[6-(trifluoromethyl)pyrazin-2-yl]amino}-1,2-thiazole-4-carboxamide] | > 20 µM |
| Cc1nsc(Nc2cnc(C(F)(F)F)cn2)c1C(=O)Nc1ccc(C(=O)NC2CN(CC(F)(F)F)C2)cc1 [Example 270, 3-methyl-N-(4-{[1-(2,2,2-trifluoroethyl)azetidin-3-yl]carbamoyl}phenyl)-5-{[5-(trifluoromethyl)pyrazin-2-yl]amino}-1,2-thiazole-4-carboxamide] | > 20 µM |
| Cc1nsc(Nc2cnc(C(F)(F)F)cn2)c1C(=O)Nc1ccc(C(=O)NC2CN(CC(F)F)C2)cc1 [Example 271, N-(4-{[1-(2,2-difluoroethyl)azetidin-3-yl]carbamoyl}phenyl)-3-methyl-5-{[5-(trifluoromethyl)pyrazin-2-yl]amino}-1,2-thiazole-4-carboxamide] | > 20 µM |
| Cc1nsc(Nc2cncc(C(F)(F)F)n2)c1C(=O)Nc1ccc(C(=O)N2CCN(CC(F)(F)F)CC2)cc1 [Example 272, 3-methyl-N-(4-{[4-(2,2,2-trifluoroethyl)piperazin-1-yl]carbonyl}phenyl)-5-{[6-(trifluoromethyl)pyrazin-2-yl]amino}-1,2-thiazole-4-carboxamide] | > 20 µM |
| Cc1nsc(Nc2cncc(C(F)(F)F)n2)c1C(=O)Nc1ccc(C(=O)N2CCN(CC(F)F)CC2)cc1 [Example 273, N-(4-{[4-(2,2-difluoroethyl)piperazin-1-yl]carbonyl}phenyl)-3-methyl-5-{[6-(trifluoromethyl)pyrazin-2-yl]amino}-1,2-thiazole-4-carboxamide] | > 20 µM |
| Cc1nsc(Nc2cncc(C(F)(F)F)n2)c1C(=O)Nc1ccc(C(=O)N2CCN(CCF)CC2)cc1 [Example 274, N-(4-{[4-(2-fluoroethyl)piperazin-1-yl]carbonyl}phenyl)-3-methyl-5-{[6-(trifluoromethyl)pyrazin-2-yl]amino}-1,2-thiazole-4-carboxamide] | > 20 µM |
| CCN1CCN(C(=O)c2ccc(NC(=O)c3c(C)nsc3Nc3cncc(C(F)(F)F)n3)cc2)CC1 [Example 275, N-{4-[(4-ethylpiperazin-1-yl)carbonyl]phenyl}-3-methyl-5-{[6-(trifluoromethyl)pyrazin-2-yl]amino}-1,2-thiazole-4-carboxamide] | > 20 µM |
| Cc1nsc(Nc2cncc(C(F)(F)F)n2)c1C(=O)Nc1ccc(OCCO)nc1 [Example 276, N-[6-(2-hydroxyethoxy)pyridin-3-yl]-3-methyl-5-{[6-(trifluoromethyl)pyrazin-2-yl]amino}-1,2-thiazole-4-carboxamide] | > 20 µM |
| Cc1nsc(Nc2cnc(C(F)(F)F)cn2)c1C(=O)Nc1ccc(OCCO)nc1 [Example 277, N-[6-(2-hydroxyethoxy)pyridin-3-yl]-3-methyl-5-{[5-(trifluoromethyl)pyrazin-2-yl]amino}-1,2-thiazole-4-carboxamide] | > 20 µM |
| Cc1nsc(Nc2cncc(C(F)(F)F)n2)c1C(=O)Nc1ccc(OCCCO)nc1 [Example 278, N-[6-(3-hydroxypropoxy)pyridin-3-yl]-3-methyl-5-{[6-(trifluoromethyl)pyrazin-2-yl]amino}-1,2-thiazole-4-carboxamide] | > 20 µM |
| Cc1nsc(Nc2cnc(C(F)(F)F)cn2)c1C(=O)Nc1ccc(OCCCO)nc1 [Example 279, N-[6-(3-hydroxypropoxy)pyridin-3-yl]-3-methyl-5-{[5-(trifluoromethyl)pyrazin-2-yl]amino}-1,2-thiazole-4-carboxamide] | > 20 µM |
| Cc1nsc(Nc2cncc(C(F)(F)F)n2)c1C(=O)Nc1ccc(C(=O)NC2CN(CC(F)(F)F)C2)cc1 [Example 280, 3-methyl-N-(4-{[1-(2,2,2-trifluoroethyl)azetidin-3-yl]carbamoyl}phenyl)-5-{[6-(trifluoromethyl)pyrazin-2-yl]amino}-1,2-thiazole-4-carboxamide] | > 20 µM and 11 µM |

The remaining lines, values ahead:

| IC50 | SMILES |
| --- | --- |
| > 20 µM | Cc1nsc(Nc2cnc3ccccc3n2)c1C(=O)Nc1cccc(NS(=O)(=O)C2CCN(CC(F)(F)F)CC2)c1 [Example 281, 3-methyl-5-(quinoxalin-2-ylamino)-N-[3-({[1-(2,2,2-trifluoroethyl)piperidin-4-yl]sulfonyl}amino)phenyl]-1,2-thiazole-4-carboxamide] |
| > 20 µM | Cc1nsc(Nc2cnc3ccccc3n2)c1C(=O)Nc1cccc(NS(=O)(=O)C2CCN(CC(F)F)CC2)c1 [Example 282, N-[3-({[1-(2,2-difluoroethyl)piperidin-4-yl]sulfonyl}amino)phenyl]-3-methyl-5-(quinoxalin-2-ylamino)-1,2-thiazole-4-carboxamide] |
| > 20 µM | Cc1nsc(Nc2cnc3ccccc3n2)c1C(=O)Nc1cccc(NS(=O)(=O)C2CCN(CCC(F)(F)F)CC2)c1 [Example 283, 3-methyl-5-(quinoxalin-2-ylamino)-N-[3-({[1-(3,3,3-trifluoropropyl)piperidin-4-yl]sulfonyl}amino)phenyl]-1,2-thiazole-4-carboxamide] |
| > 20 µM | Cc1nsc(Nc2cnc(C(F)(F)F)cn2)c1C(=O)Nc1cccc(NC(=O)OC(C)(C)C)c1 [Example 284, 3-tert-butyl (3-{[(3-methyl-5-{[5-(trifluoromethyl)pyrazin-2-yl]amino}-1,2-thiazol-4-yl)carbonyl]amino}phenyl)carbamate] |
| > 20 µM | Cc1nsc(Nc2cnc3ccccc3n2)c1C(=O)Nc1cccc(NS(=O)(=O)C2CN(CC(F)(F)F)C2)c1 [Example 285, 3-methyl-5-(quinoxalin-2-ylamino)-N-[3-({[1-(2,2,2-trifluoroethyl)azetidin-3-yl]sulfonyl}amino)phenyl]-1,2-thiazole-4-carboxamide] |
| 14 µM | Cc1nsc(Nc2cnc3ccccc3n2)c1C(=O)Nc1cccc(NS(=O)(=O)C2CN(CC(F)F)C2)c1 [Example 286, N-[3-({[1-(2,2-difluoroethyl)azetidin-3-yl]sulfonyl}amino)phenyl]-3-methyl-5-(quinoxalin-2-ylamino)-1,2-thiazole-4-carboxamide] |
| > 20 µM | Cc1nsc(Nc2cnc3ccccc3n2)c1C(=O)Nc1cccc(NS(=O)(=O)C2CN(CCF)C2)c1 [Example 287, N-[3-({[1-(2-fluoroethyl)azetidin-3-yl]sulfonyl}amino)phenyl]-3-methyl-5-(quinoxalin-2-ylamino)-1,2-thiazole-4-carboxamide] |
| > 20 µM | Cc1nsc(Nc2cnc3ccccc3n2)c1C(=O)Nc1cccc(NS(=O)(=O)C2CN(CCC(F)(F)F)C2)c1 [Example 288, 3-methyl-5-(quinoxalin-2-ylamino)-N-[3-({[1-(3,3,3-trifluoropropyl)azetidin-3-yl]sulfonyl}amino)phenyl]-1,2-thiazole-4-carboxamide] |
| > 20 µM | Cc1nsc(Nc2cnc3ccccc3n2)c1C(=O)Nc1cccc(NS(=O)(=O)C2CCN(CC(F)(F)F)C2)c1 (stereo not shown) [Example 289, 3-methyl-5-(quinoxalin-2-ylamino)-N-[3-({[1-(2,2,2-trifluoroethyl)pyrrolidin-3-yl]sulfonyl}amino)phenyl]-1,2-thiazole-4-carboxamide] |
| > 20 µM | Cc1nsc(Nc2cnc3ccccc3n2)c1C(=O)Nc1cccc(NS(=O)(=O)C2CCN(C(=O)OC(C)(C)C)C2)c1 (stereo not shown) [Example 290, tert-butyl 3-{[3-({[3-methyl-5-(quinoxalin-2-ylamino)-1,2-thiazol-4-yl]carbonyl}amino)phenyl]sulfamoyl} pyrrolidine-1-carboxylate] |
| > 20 µM | Cc1nsc(Nc2cnc3ccccc3n2)c1C(=O)Nc1cccc(NS(=O)(=O)C2CCCN(C(=O)OCc3ccccc3)C2)c1 (stereo not shown) [Example 291, benzyl 3-{[3-({[3-methyl-5-(quinoxalin-2-ylamino)-1,2-thiazol-4-yl]carbonyl}amino)phenyl]sulfamoyl} piperidine-1-carboxylate] |
| > 20 µM | Cc1nsc(Nc2cnc(C(F)(F)F)cn2)c1C(=O)Nc1ccc(OCCCNCC(F)(F)F)nc1 [Example 292, 3-methyl-N-(6-{3-[(2,2,2-trifluoroethyl)amino]propoxy}pyridin-3-yl)-5-{[5-(trifluoromethyl)pyrazin-2-yl]amino}-1,2-thiazole-4-carboxamide] |
| > 20 µM | Cc1nsc(Nc2cnc(C(F)(F)F)cn2)c1C(=O)Nc1ccc(OCCCNCC(F)F)nc1 [Example 293, N-(6-{3-[(2,2-difluoroethyl)amino]propoxy}pyridin-3-yl)-3-methyl-5-{[5-(trifluoromethyl)pyrazin-2-yl]amino}-1,2-thiazole-4-carboxamide] |
